Laboratory results from patent US12077503B2, “Substituted cyclic amides and their use as herbicides” (FMC CORPORATION, priority 2015, dated 2024).

Columns and labels:
Assay in all cases: Test C preemergence
Type in all cases: in vivo
[1] = tested on: corn (Zea mays); details: for Plant response rating (scale of 0 to 100), Corn: 0 is no effect, 100 is complete control
Method in brief: (§1)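 Visual 0 (no effect) to 100 (complete control) ratings versus controls, taken 13–15 d after treatment in the greenhouse; dash means no result. Compounds in a surfactant-containing non-phytotoxic solvent blend were applied preemergence to seeds in loam-sand soil or postemergence to 1- to 4-leaf plants (2–18 cm) in peat-based medium.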

[2] = tested on: oilseed rape (Brassica napus); details: for Plant response rating (scale of 0 to 100), Oilseed Rape: 0 is no effect, 100 is complete control
Method in brief: as §1

[3] = tested on: morningglory (Ipomoea coccinea); details: for Plant response rating (scale of 0 to 100), Morningglory: 0 is no effect, 100 is complete control
Method in brief: as §1

[4] = tested on: blackgrass (Alopecurus myosuroides); details: for Plant response rating (scale of 0 to 100), Blackgrass: 0 is no effect, 100 is complete control
Method in brief: as §1

[5] = tested on: soybean (Glycine max); details: for Plant response rating (scale of 0 to 100), Soybean: 0 is no effect, 100 is complete control
Method in brief: as §1

[6] = tested on: lambsquarters (Chenopodium album); details: for Plant response rating (scale of 0 to 100), Lambsquarters: 0 is no effect, 100 is complete control
Method in brief: as §1

[7] = tested on: ragweed (common ragweed, Ambrosia elatior); details: for Plant response rating (scale of 0 to 100), Ragweed: 0 is no effect, 100 is complete control
Method in brief: as §1

[8] = tested on: nutsedge, yellow (yellow nutsedge, Cyperus esculentus); details: for Plant response rating (scale of 0 to 100), Nutsedge, Yellow: 0 is no effect, 100 is complete control
Method in brief: as §1

[9] = tested on: foxtail, giant (giant foxtail, Setaria faberii); details: for Plant response rating (scale of 0 to 100), Foxtail, Giant: 0 is no effect, 100 is complete control
Method in brief: as §1

[10] = tested on: barnyardgrass (Echinochloa crus-galli); details: for Plant response rating (scale of 0 to 100), Barnyardgrass: 0 is no effect, 100 is complete control
Method in brief: as §1

[11] = tested on: pigweed (Amaranthus retroflexus); details: for Plant response rating (scale of 0 to 100), Pigweed: 0 is no effect, 100 is complete control
Method in brief: as §1

[12] = tested on: wheat (winter wheat, Triticum aestivum); details: for Plant response rating (scale of 0 to 100), Wheat: 0 is no effect, 100 is complete control
Method in brief: as §1

[13] = tested on: crabgrass, large (large crabgrass, Digitaria sanguinalis); details: for Plant response rating (scale of 0 to 100), Crabgrass, Large: 0 is no effect, 100 is complete control
Method in brief: as §1

[14] = tested on: velvetleaf (Abutilon theophrasti); details: for Plant response rating (scale of 0 to 100), Velvetleaf: 0 is no effect, 100 is complete control
Method in brief: as §1

[15] = tested on: ryegrass, Italian (Italian ryegrass, Lolium multiflorum); details: for Plant response rating (scale of 0 to 100), Ryegrass, Italian: 0 is no effect, 100 is complete control
Method in brief: as §1

[16] = tested on: Galium (catchweed bedstraw, Galium aparine); details: for Plant response rating (scale of 0 to 100), Galium: 0 is no effect, 100 is complete control
Method in brief: as §1

[17] = 62 g ai/ha, scale 0 to 100, 0 no effect, 100 complete control

CN1CC(c2ccc(C(C)(F)F)cc2)C(C(=O)Nc2cccc(F)c2F)C1=O (stereo not shown) [Compound 690]
100: Plant response rating, Crabgrass, Large [13, 17] | Plant response rating (scale of 0 to 100), Galium ([16]; 8 g ai/ha)
55: Plant response rating, Blackgrass [4, 17]
95: Plant response rating (scale of 0 to 100), Foxtail, Giant ([9]; 16 g ai/ha) | Plant response rating (scale of 0 to 100), Foxtail, Giant ([9]; 31 g ai/ha) | Plant response rating (scale of 0 to 100), Barnyardgrass ([10]; 16 g ai/ha) | Plant response rating (scale of 0 to 100), Barnyardgrass ([10]; 31 g ai/ha) | Plant response rating (scale of 0 to 100), Crabgrass, Large ([13]; 8 g ai/ha) | Plant response rating (scale of 0 to 100), Galium ([16]; 31 g ai/ha)
20: Plant response rating (scale of 0 to 100), Corn ([1]; 8 g ai/ha) | Plant response rating (scale of 0 to 100), Corn ([1]; 31 g ai/ha) | Plant response rating (scale of 0 to 100), Velvetleaf ([14]; 31 g ai/ha)
75: Plant response rating (scale of 0 to 100), Oilseed Rape ([2]; 31 g ai/ha) | Plant response rating (scale of 0 to 100), Lambsquarters ([6]; 31 g ai/ha) | Plant response rating (scale of 0 to 100), Pigweed ([11]; 31 g ai/ha)
80: Plant response rating, Oilseed Rape [2, 17] | Plant response rating, Ragweed [7, 17]
60: Plant response rating (scale of 0 to 100), Pigweed ([11]; 16 g ai/ha)
5: Plant response rating (scale of 0 to 100), Wheat ([12]; 16 g ai/ha)
70: Plant response rating, Corn [1, 17]
65: Plant response rating (scale of 0 to 100), Lambsquarters ([6]; 8 g ai/ha) | Plant response rating (scale of 0 to 100), Lambsquarters ([6]; 16 g ai/ha)
45: Plant response rating, Wheat [12, 17] | Plant response rating, Ryegrass, Italian [15, 17]
50: Plant response rating (scale of 0 to 100), Oilseed Rape ([2]; 16 g ai/ha) | Plant response rating (scale of 0 to 100), Blackgrass ([4]; 31 g ai/ha) | Plant response rating, Nutsedge, Yellow [8, 17] | Plant response rating (scale of 0 to 100), Pigweed ([11]; 8 g ai/ha) | Plant response rating, Velvetleaf [14, 17]
25: Plant response rating (scale of 0 to 100), Ragweed ([7]; 31 g ai/ha)
90: Plant response rating (scale of 0 to 100), Foxtail, Giant ([9]; 8 g ai/ha) | Plant response rating, Pigweed [11, 17] | Plant response rating (scale of 0 to 100), Galium ([16]; 16 g ai/ha)
40: Plant response rating (scale of 0 to 100), Wheat ([12]; 31 g ai/ha) | Plant response rating (scale of 0 to 100), Ryegrass, Italian ([15]; 31 g ai/ha)
0: Plant response rating (scale of 0 to 100), Oilseed Rape ([2]; 8 g ai/ha) | Plant response rating (scale of 0 to 100), Morningglory ([3]; 8 g ai/ha) | Plant response rating (scale of 0 to 100), Morningglory ([3]; 16 g ai/ha) | Plant response rating (scale of 0 to 100), Morningglory ([3]; 31 g ai/ha) | Plant response rating, Morningglory [3, 17] | Plant response rating (scale of 0 to 100), Blackgrass ([4]; 8 g ai/ha) | Plant response rating (scale of 0 to 100), Blackgrass ([4]; 16 g ai/ha) | Plant response rating (scale of 0 to 100), Soybean ([5]; 8 g ai/ha) | Plant response rating (scale of 0 to 100), Soybean ([5]; 16 g ai/ha) | Plant response rating (scale of 0 to 100), Soybean ([5]; 31 g ai/ha) | Plant response rating, Soybean [5, 17] | Plant response rating (scale of 0 to 100), Ragweed ([7]; 8 g ai/ha) | Plant response rating (scale of 0 to 100), Nutsedge, Yellow ([8]; 8 g ai/ha) | Plant response rating (scale of 0 to 100), Nutsedge, Yellow ([8]; 16 g ai/ha) | Plant response rating (scale of 0 to 100), Nutsedge, Yellow ([8]; 31 g ai/ha) | Plant response rating (scale of 0 to 100), Wheat ([12]; 8 g ai/ha) | Plant response rating (scale of 0 to 100), Velvetleaf ([14]; 8 g ai/ha) | Plant response rating (scale of 0 to 100), Velvetleaf ([14]; 16 g ai/ha) | Plant response rating (scale of 0 to 100), Ryegrass, Italian ([15]; 8 g ai/ha)
98: Plant response rating, Foxtail, Giant [9, 17] | Plant response rating, Barnyardgrass [10, 17] | Plant response rating (scale of 0 to 100), Crabgrass, Large ([13]; 16 g ai/ha) | Plant response rating (scale of 0 to 100), Crabgrass, Large ([13]; 31 g ai/ha) | Plant response rating, Galium [16, 17]
10: Plant response rating (scale of 0 to 100), Corn ([1]; 16 g ai/ha) | Plant response rating (scale of 0 to 100), Ragweed ([7]; 16 g ai/ha) | Plant response rating (scale of 0 to 100), Ryegrass, Italian ([15]; 16 g ai/ha)
85: Plant response rating, Lambsquarters [6, 17] | Plant response rating (scale of 0 to 100), Barnyardgrass ([10]; 8 g ai/ha)
